Non-standard residues stand in square brackets, D forms with d. No end group written: not given here. dPhg = N[C@@H](C(=O)O)c1ccccc1; Phg = N[C@H](C(=O)O)c1ccccc1; code Z = not defined here; Orn = NCCC[C@H](N)C(=O)O; Mpa = O=C(O)CCS
Columns and labels:
[1] = system: bacteria; test: Anti-bacterial activity (tables of particularly interesting compounds); type: cell-based; set-up: key: + indicates that the compound show effects
[2] = system: CNS incl. resistant and multiresistant MRSE; test: Agar well diffusion; conditions: 40 ul of 1 mg/ml in DMSO per well
[3] = system: Staphylococci incl. multiresistant MRSA; test: Agar well diffusion; conditions: 40 ul of 1 mg/ml in DMSO per well
[4] = system: L. monocytogenes; test: Agar well diffusion; conditions: 40 ul of 1 mg/ml in DMSO per well
[5] = system: MRSA; test: Growth inhibition of clinical isolates; conditions: approximately 100 strains of MRSA, several with additional resistance markers
[6] = system: E. coli and other Gram-negatives; test: Agar well diffusion; conditions: E. coli and other Gram-negatives; 40 ul of 1 mg/ml in DMSO per well
[7] = system: S. pneumoniae; test: Agar well diffusion; conditions: 40 ul of 1 mg/ml in DMSO per well
[8] = system: Streptococcus: group C; test: Agar well diffusion; conditions: 40 ul of 1 mg/ml in DMSO per well
[9] = system: α-haemolytic Streptococci; test: Agar well diffusion; conditions: 40 ul of 1 mg/ml in DMSO per well
[10] = system: Streptococcus: group A; test: Agar well diffusion; conditions: 40 ul of 1 mg/ml in DMSO per well
[11] = system: Streptococcus: group G; test: Agar well diffusion; conditions: 40 ul of 1 mg/ml in DMSO per well
[12] = system: Streptococcus: group B; test: Agar well diffusion; conditions: 40 ul of 1 mg/ml in DMSO per well
[13] = system: poliovirus type 1; type: cell-based; conditions: 0.4 mM in 1% DMSO; analysed in the same way as Cystapep 1
[14] = system: HSV-1 F (Herpes Simplex Virus); test: Antiviral inhibition analysis and plaque counting test in GMK AH 1 cells; type: cell-based; conditions: 0.4 mM in 1% DMSO; analysed in the same way as Cystapep 1
[15] = system: virus; test: Anti-viral activity (tables of particularly interesting compounds); type: cell-based; set-up: key: + indicates that the compound show effects; conditions: compounds listed by R4 or R1 residue
[16] = compounds listed by R4 or R1 residue
[17] = peptide analogues and cyclic compounds

C=C(C(=O)NCC(NC(=O)C(CC(C)C)NC(=O)C(CCCNC(=N)N)NC(=O)OCc1ccccc1)C(C)C)c1ccncc1 (centres unmarked) [2-(4-pyridyl)acroyl]
Activity Anti-bacterial [1, 16]: +

CC(C)CC(NC(=O)C(CCCNC(=N)N)NC(=O)OCc1ccccc1)C(=O)NC(CNC(=O)C=CC=Cc1ccccc1)C(C)C (centres unmarked) [5-phenylpenta-2,4-dienoyl]
Activity Anti-bacterial [1, 16]: +

CC(=O)NC(Cc1ccccc1)C(=O)NCC(NC(=O)C(CC(C)C)NC(=O)C(CCCNC(=N)N)NC(=O)OCc1ccccc1)C(C)C (centres unmarked) [(AcPhe^5)Cp1]
antibacterial effect [2]: +
antibacterial effect [3]: +
antibacterial effect [4]: +
growth inhibition of MRSA strains [5]: strongly inhibited in their growth
antibacterial effect [6]: −
antibacterial effect [7]: +
antibacterial effect [8]: +
antibacterial effect [9]: −
antibacterial effect [10]: +
antibacterial effect [11]: +
antibacterial effect [12]: +

CC(C)C(CNC(=O)/C=C/c1ccccc1)NC(=O)CNC(=O)C(CCCNC(=N)N)NC(=O)OCc1ccccc1 (centres unmarked) [(Gly^3)Cp1]
antibacterial effect [2]: +
antibacterial effect [3]: +
growth inhibition of MRSA strains [5]: strongly inhibited in their growth
antibacterial effect [8]: +
antibacterial effect [9]: −
antibacterial effect [12]: +

CC(C)CC(CNC(=O)/C=C/c1ccccc1)NC(=O)C(CC(C)C)NC(=O)C(CCCNC(=N)N)NC(=O)OCc1ccccc1 (centres unmarked) [(Leu^4)Cp1]
effect against polio [13]: found to have effect
antibacterial effect [2]: +
antibacterial effect [3]: +
effect against HSV-1 [14]: found to have effect
growth inhibition of MRSA strains [5]: strongly inhibited in their growth
antibacterial effect [6]: −
antibacterial effect [7]: +
antibacterial effect [8]: +
antibacterial effect [9]: −
antibacterial effect [10]: +
antibacterial effect [11]: +
antibacterial effect [12]: +

CC(C)CC(NC(=O)C(CCCNC(=N)N)NC(=O)OCc1ccccc1)C(=O)NC(CNC(=O)/C=C/c1ccccc1)Cc1ccccc1 (centres unmarked) [(Phe^4)Cp1]
effect against polio [13]: found to have effect
antibacterial effect [2]: +
antibacterial effect [3]: +
effect against HSV-1 [14]: found to have effect
growth inhibition of MRSA strains [5]: strongly inhibited in their growth
antibacterial effect [6]: −
antibacterial effect [7]: +
antibacterial effect [8]: +
antibacterial effect [9]: −
antibacterial effect [10]: +
antibacterial effect [11]: +
antibacterial effect [12]: +

CC(=O)N[C@H](Cc1ccccc1)C(=O)NCC(NC(=O)C(CC(C)C)NC(=O)C(CCCNC(=N)N)NC(=O)OCc1ccccc1)C(C)C (stereo partly drawn) [Acetyl-D-phenylalanoyl]
Activity Anti-viral [15]: +
Activity Anti-bacterial [1, 16]: +

CC(=O)N[C@@H](Cc1ccccc1)C(=O)NCC(NC(=O)C(CC(C)C)NC(=O)C(CCCNC(=N)N)NC(=O)OCc1ccccc1)C(C)C (stereo partly drawn) [Acetyl-L-phenylalanoyl]
Activity Anti-viral [15]: +
Activity Anti-bacterial [1, 16]: +

CC(=O)NC(CCCNC(=N)N)C(=O)NC(CC(C)C)C(=O)NC(CNC(=O)/C=C/c1ccccc1)C(C)C (centres unmarked) [Acetyl]
Activity Anti-bacterial [1, 16]: +

CC(C)CC(NC(=O)C(CCCNC(=N)N)NC(=O)OCc1ccccc1)C(=O)NC(CNC(=O)/C=C/c1ccccc1)C(C)C (centres unmarked) [Benzyloxtcarbonyl]
Activity Anti-bacterial [1, 16]: +

CC(C)CC(NC(=O)C(CCCNC(=N)N)NC(=O)OCc1ccccc1)C(=O)NC(CNC(=O)CCl)C(C)C (centres unmarked) [Chloroacetyl]
Activity Anti-bacterial [1, 16]: +

CC(C)CC(NC(=O)C(CCCNC(=N)N)NC(=O)CCc1ccccc1)C(=O)NC(CNC(=O)/C=C/c1ccccc1)C(C)C (centres unmarked) [Compound 3-phenylpropionyl]
Activity Anti-bacterial [1, 16]: +

CC(C)CC(NC(=O)C(CCCNC(=N)N)NC(=O)CCCc1ccccc1)C(=O)NC(CNC(=O)/C=C/c1ccccc1)C(C)C (centres unmarked) [Compound 4-phenylbutyryl]
Activity Anti-bacterial [1, 16]: +

CC(C)CC(NC(=O)C(CCCNC(=N)N)NC(=O)OCc1ccccc1)C(=O)NC(CNC(=O)C=Cc1ccc(-c2ccccc2)cc1)C(C)C (centres unmarked) [Compound 4-phenylcinnamoyl]
Activity Anti-bacterial [1, 16]: +

CC(C)CC(NC(=O)C(CCCNC(=N)N)NC(=O)OCc1ccccc1)C(=O)NC(CNC(=O)[C@H](Br)Cc1ccccc1)C(C)C (stereo partly drawn) [Compound D-2-bromo-3-phenylpropionyl]
Activity Anti-bacterial [1, 16]: +

CC(C)CC(NC(=O)C(CCCNC(=N)N)NC(=O)OCc1ccccc1)C(=O)NC(CNC(=O)[C@H](O)Cc1ccccc1)C(C)C (stereo partly drawn) [Compound D-2-hydroxy-3-phenylpropionyl]
Activity Anti-bacterial [1, 16]: +

CC(C)CC(NC(=O)C(CCCNC(=N)N)NC(=O)OCc1ccccc1)C(=O)NC(CNC(=O)[C@@H](Br)Cc1ccccc1)C(C)C (stereo partly drawn) [Compound L-2-bromo-3-phenylpropionyl]
Activity Anti-bacterial [1, 16]: +

CC(C)CC(NC(=O)C(CCCNC(=N)N)NC(=O)OCc1ccccc1)C(=O)NC(CNC(=O)[C@@H](O)Cc1ccccc1)C(C)C (stereo partly drawn) [Compound L-2-hydroxy-3-phenylpropionyl]
Activity Anti-bacterial [1, 16]: +

CC(C)CC(NC(=O)C(CCCNC(=N)N)NC(=O)Cc1ccccc1)C(=O)NC(CNC(=O)/C=C/c1ccccc1)C(C)C (centres unmarked) [Phenylacetyl]
Activity Anti-bacterial [1, 16]: +

CC(C)CC(NC(=O)C(CCCNC(=N)N)NC(=O)OCc1ccccc1)C(=O)NC(CNC(=O)C#Cc1ccccc1)C(C)C (centres unmarked) [Phenylpropiolyl]
Activity Anti-bacterial [1, 16]: +

CC(C)CC(NC(=O)C(CCCNC(=N)N)NC(=O)OCc1ccccc1)C(=O)NC(CNC(=O)Cc1ccccc1)C(C)C (centres unmarked) [n = 1]
Activity Anti-bacterial [1, 16]: +

CC(C)CC(NC(=O)C(CCCNC(=N)N)NC(=O)OCc1ccccc1)C(=O)NC(CNC(=O)CCc1ccccc1)C(C)C (centres unmarked) [n = 2]
Activity Anti-bacterial [1, 16]: +

CC(C)CC(NC(=O)C(CCCNC(=N)N)NC(=O)OCc1ccccc1)C(=O)NC(CNC(=O)/C=C/Cc1ccccc1)C(C)C (stereo not drawn) [trans-3-benzylacroyl]
Activity Anti-bacterial [1, 16]: +

CC(C)CC(NC(=O)C(CCCNC(=N)N)NC(=O)OCc1ccccc1)C(=O)NC(CNC(=O)/C=C/S(=O)(=O)Cc1ccccc1)C(C)C (stereo not drawn) [trans-3-benzylsulphonylacroyl]
Activity Anti-bacterial [1, 16]: +

CC(C)CC(NC(=O)C(CCCNC(=N)N)NC(=O)OCc1ccccc1)C(=O)NC(CNC(=O)/C=C/c1ccccc1)C(C)C (stereo not drawn) [trans-cinnamoyl]
Activity Anti-viral [15]: +

Mpa-Phe-Arg-Leu-Val-Phe-Cys-NH2 ([Mpa]FRLVFC-NH2; cysteine pairing not given here) [footnote: Mpa-Phe indicates 3-phenylpropionyl]
Activity Anti-bacterial [1, 17]: +

Z-Arg-Leu-Val-Phe-NH2 ({code Z}-RLVF-NH2; reading uncertain; also: printed as Z-Arg-Leu-Val-Phe-NH2)
Activity Anti-bacterial [1, 17]: +

Z-Arg-Leu-Val-cinnamoylamide
Activity Anti-bacterial [1, 17]: +

cyclo(D-Tyr-Arg-Leu-Val-D-Tyr-Arg-Leu-Val) (chain 1 [dY]RLV; chain 2 [dY]RLV; also: two chains joined into one cyclic octapeptide, head-to-tail to a chain's N/C-terminus)
Activity Anti-bacterial [1, 17]: +

cyclo(FRLVF[Orn]LV)
Activity Anti-bacterial [1, 17]: +

cyclo(F[Orn]LVF[Orn]LV)
Activity Anti-bacterial [1, 17]: +

cyclo(Phe-Arg-Leu-Val-Phe-Arg-Leu-Val) (FRLVFRLV; cyclic; printed: Phe-Arg-Leu-Val-Phe-Arg-Leu-Val)
Activity Anti-bacterial [1, 17]: +

cyclo(Tyr-Arg-Leu-Val-Tyr-Arg-Leu-Val) (YRLVYRLV; cyclic; printed: Tyr-Arg-Leu-Val-Tyr-Arg-Leu-Val)
Activity Anti-bacterial [1, 17]: +

cyclo([Phg]RLV[Phg]RLV)
Activity Anti-bacterial [1, 17]: +

cyclo([dPhg]RLV[dPhg]RLV)
Activity Anti-bacterial [1, 17]: +
